Results reported in publication PMC13195669, “GPR3 Ligands Discovered through Combined Virtual and Conformational Biosensor-Based Screening” (Journal of the American Chemical Society, 2026).

Tested on: β2AR
Experiment: β2AR-HaloTag/Nluc conformational biosensor (negative control) in HEK293A cells
Format: cell-based, human
Details: β2AR-HaloTag/Nluc as negative control; HEK293A stable
Protocol: Initially, all 93 molecules were tested for activity at the GPR3 biosensor at a concentration of 1 μM (Figure a). […] Of the five compounds that emerged from the virtual screen, three–hereafter referred to as virtual hit 1–3, VH1/2/3–were selected for in-house chemical synthesis (compounds 52, 93, and 115; cf. Scheme , Figure S6), providing compounds of ≥99% purity for hit validation (NMR spectra: Figures S7–S142; HPLC purity: Figures S143–S218). For VH1, the racemic mix, rac-VH1/52, was synthesized and used for testing. Compounds 52, VH2/93, and VH3/115 (Figure S6) were then validated with the GPR3 biosensor including β2AR-HaloTag/Nluc as a negative control.
BRET-based GPCR conformational sensor experiments
Cells expressing the conformational GPCR biosensors were grown for 24 h (stable cells) or 48 h (transiently transfected cells) in white 96-well plates and washed with 100 µl of HBSS. After washing, cells were incubated for 2 minutes with a 1/1000 solution of the furimazine stock solution (Promega; cat. no. N1662). Three baseline BRET reads were recorded and averaged prior to the addition of serial dilutions of ligands or veh icle control and subsequent BRET reads. All experiments were con-ducted at 37 °C. BRE T donor emission was quantified with a 470/80 nm monochromator. BRET acceptor emission was quan-tified using a 660/100 nm monochromator. Experiments were carried out using a CLARIOstar plate reader. […]
FRET and BRET ratios were defined as acceptor emission/donor emission. […] To quantify ligand-induced changes ΔFRET and ΔBRET were calculated for each well as a percent over basal ([(Ratiostim − Ratiobasal)/Ratiobasal] × 100). […]
Data from FRET/BRET experiments were fitted using a three-parameter fit. Z-factors expressing the high-throughput suita-bility were calculated with the following equation: […]
Commercially available chemicals and solvents were purchased from standard commercial suppliers (Merck (Darmstadt, Ger-many), Sigma-Aldrich (Munich, Germany), Acros Organics (Geel, Belgium), Alfa Aesar (Karlsruhe, Germany), abcr (Karlsruhe, Germany), BLD Pharmatech (Reinbek, Germany) or TCI Europe (Zwijndrecht, Belgium) and were used as received. Deuter-ated solvents for nuclear magnetic resonance (1H NMR and 13C NMR) spectra were purchased from Deutero GmbH (Kastel-laun, Germany). All reactions carried out with dry solvents were accomplished in dry flasks under nitrogen or argon atmos-phere. For the preparation of buffers, HPLC eluents, and stock solutions millipore water was used. […] The reactions were monitored by thin layer chromatography (TLC) on Merck silica gel 60 F254 aluminium sheets and spots were visualized under UV light at 254 nm, by potassium permanganate or ninhydrin staining. […]

| SMILES | specificity of conformational response for GPR3 vs β2AR-HaloTag/Nluc |
| --- | --- |
| N=c1n(Cc2ccccc2)c2ccccc2n1CC1CC1 [compound 33] | selectivity for GPR3 over β2AR |
| N=c1n(Cc2ccccc2)c2ccccc2n1CC(O)COc1ccc(Cl)cc1 (stereo not drawn) [compound 52] | concentration-dependent and GPR3-specific conformational changes |
| Cc1ccc(NC(=O)CN2CCN(C(=O)CCc3ccc(Cl)cc3)CC2)cc1 [compound 115] | concentration-dependent and GPR3-specific conformational changes |
